In US6716833B2, “Acetylenic α-amino acid-based sulfonamide hydroxamic acid tace inhibitors” (priority 1999, dated 2004):
Counter-ions that a name gives are not always drawn.

Key:
Format in all cases: biochemical
MMP-1 = target: T1, MMP-1 (Homo sapiens, UniProt P03956); assay: MMP-1 inhibition (thiopeptide or fluorescent peptide substrate); details: read-out: MMP-1 IC50
T1 sequence (P03956 100-469): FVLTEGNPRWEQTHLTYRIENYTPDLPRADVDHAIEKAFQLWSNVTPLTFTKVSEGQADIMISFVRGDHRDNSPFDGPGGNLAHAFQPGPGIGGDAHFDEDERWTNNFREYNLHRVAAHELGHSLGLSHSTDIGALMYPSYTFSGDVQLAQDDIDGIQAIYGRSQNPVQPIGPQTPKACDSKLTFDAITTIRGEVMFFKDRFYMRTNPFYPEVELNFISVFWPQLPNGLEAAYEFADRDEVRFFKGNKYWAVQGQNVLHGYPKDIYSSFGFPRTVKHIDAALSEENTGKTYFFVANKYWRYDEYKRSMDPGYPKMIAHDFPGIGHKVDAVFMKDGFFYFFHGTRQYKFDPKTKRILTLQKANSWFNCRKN
Protocol: (§1) The enzyme activity is measured by the rate of the color increase. The thiopeptide substrate is made up fresh as a 20 mM stock in 100% DMSO and the DTNB is dissolved in 100% DMSO as a 100 mM stock and stored in the dark at room temperature. Both the substrate and DTNB are diluted together to 1 mM with substrate buffer (50 mM HEPES pH 7.5, 5 mM CaCl2) before use. The stock of enzyme is diluted with buffer (50 mM HEPES, pH 7.5, 5 mM CaCl2, 0.02% Brij) to the desired final concentration.
(§2) Alternatively, a fluorescent peptide substrate is used. In this test procedure, the peptide substrate contains a fluorescent group and a quenching group. Upon cleavage of the substrate by an MMP, the fluorescence that is generated is quantitated on the fluorescence plate reader. The assay is run in HCBC assay buffer (50 mM HEPES, pH 7.0, 5 mM Ca^+2, 0.02% Brij, 0.5% Cysteine), with human recombinant MMP-1, MMP-9, or MMP-13. […] For the assay, substrate and enzymes are diluted in HCBC buffer to the desired concentrations. Compounds are added to the 96 well plate containing enzyme and the reaction is started by the addition of substrate.
(§3) For either the thiopeptide or fluorescent peptide test procedures, the slope of the line is calculated and represents the reaction rate. The linearity of the reaction rate is confirmed (r^2>0.85). The mean (x±sem) of the control rate is calculated and compared for statistical significance (p<0.05) with drug-treated rates using Dunnett's multiple comparison test.

MMP-9 = MMP-9 (Homo sapiens, UniProt P14780); assay: MMP-9 inhibition (thiopeptide or fluorescent peptide substrate); details: read-out: MMP-9 IC50
Protocol: as §1, §2, §3

MMP-13 = MMP-13 (Homo sapiens, UniProt P45452); assay: MMP-13 inhibition (thiopeptide or fluorescent peptide substrate); details: read-out: MMP-13 IC50
[1] = target: TNF-α converting enzyme (TACE) (Homo sapiens, UniProt P78536); assay: TACE inhibition (fluorescent peptidyl substrate); details: read-out: TACE IC50
Chain of TNF-α converting enzyme (TACE) (P78536 215-824, species assumed): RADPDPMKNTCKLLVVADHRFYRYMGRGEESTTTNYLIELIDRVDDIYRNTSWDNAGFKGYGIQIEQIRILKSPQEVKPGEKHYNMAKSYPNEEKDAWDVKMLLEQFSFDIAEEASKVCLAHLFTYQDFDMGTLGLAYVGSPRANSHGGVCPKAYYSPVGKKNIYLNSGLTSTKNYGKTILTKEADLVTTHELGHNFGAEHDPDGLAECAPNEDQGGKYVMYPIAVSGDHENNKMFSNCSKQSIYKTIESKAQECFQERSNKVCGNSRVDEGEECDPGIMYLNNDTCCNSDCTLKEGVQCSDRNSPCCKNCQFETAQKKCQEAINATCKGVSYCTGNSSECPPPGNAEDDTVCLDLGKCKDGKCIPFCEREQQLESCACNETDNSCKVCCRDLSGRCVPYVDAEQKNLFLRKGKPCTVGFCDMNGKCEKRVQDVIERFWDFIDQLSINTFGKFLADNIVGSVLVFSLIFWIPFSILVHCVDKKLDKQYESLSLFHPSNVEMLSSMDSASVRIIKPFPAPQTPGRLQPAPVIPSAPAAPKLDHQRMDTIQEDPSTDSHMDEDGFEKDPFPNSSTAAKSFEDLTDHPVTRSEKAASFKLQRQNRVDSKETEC

Chain of MMP-9 (P14780 94-707): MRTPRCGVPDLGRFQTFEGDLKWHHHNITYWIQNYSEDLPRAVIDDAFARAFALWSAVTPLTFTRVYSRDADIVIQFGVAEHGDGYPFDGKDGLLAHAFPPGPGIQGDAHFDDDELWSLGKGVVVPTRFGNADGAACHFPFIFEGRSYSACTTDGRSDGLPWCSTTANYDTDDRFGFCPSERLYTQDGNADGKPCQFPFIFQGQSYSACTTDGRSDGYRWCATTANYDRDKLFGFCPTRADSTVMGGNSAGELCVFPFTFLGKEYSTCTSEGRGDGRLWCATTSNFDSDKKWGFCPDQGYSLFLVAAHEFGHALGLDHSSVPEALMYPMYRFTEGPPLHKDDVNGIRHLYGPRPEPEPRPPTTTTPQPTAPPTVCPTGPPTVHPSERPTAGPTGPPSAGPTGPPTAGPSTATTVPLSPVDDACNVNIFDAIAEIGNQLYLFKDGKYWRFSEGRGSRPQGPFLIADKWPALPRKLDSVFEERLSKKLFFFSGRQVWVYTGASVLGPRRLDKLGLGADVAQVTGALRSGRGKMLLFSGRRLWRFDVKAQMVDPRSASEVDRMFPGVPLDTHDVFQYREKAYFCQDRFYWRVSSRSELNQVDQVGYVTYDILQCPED

In the case of `CC#CCOc1ccc(S(=O)(=O)N2Cc3ccccc3CC2C(=O)NO)cc1` (stereo not drawn) [Example 41, 2-(4-but-2-ynyloxy-Benzenesulfonyl)-1,2,3,4-tetrahydro-isoquinoline-3-carboxylic Acid Hydroxyamide], the IC50 (MMP-1) is reported as 121 nM, the IC50 (MMP-9) is reported as 24 nM and the IC50 (MMP-13) is reported as 10 nM. It also gave an IC50 [1] of 7 nM.

Molecule `CC#CCOc1ccc(S(=O)(=O)N2CCCN(C(=O)c3ccccc3)CC2C(=O)NO)cc1` (stereo not drawn) [Example 49, 4-Benzoyl-1-(4-but-2-ynyloxy-benzenesulfonyl)-[1,4]diazepane-2-carboxylic Acid Hydroxyamide] has an IC50 (MMP-1) of 362 nM, an IC50 (MMP-9) of 75 nM and an IC50 (MMP-13) of 65 nM. The IC50 [1] was 17 nM.

For `CC#CCOc1ccc(S(=O)(=O)N2CCN(C)CC2C(=O)NO)cc1` (stereo not drawn) [Example 56, 1-(4-but-2-ynyloxy-Benzenesulfonyl)-4-methyl-piperazine-2-carboxylic Acid Hydroxyamide Hydrochloride], the IC50 (MMP-1) was 3340 nM, the IC50 (MMP-9) was 667 nM and the IC50 (MMP-13) was 158 nM. For the same molecule, the IC50 [1] was 41 nM.

`CC#CCOc1ccc(S(=O)(=O)N2CCN(C(=O)OC(C)(C)C)CC2C(=O)NO)cc1` (stereo not drawn) [Example 58, 4-(4-but-2-ynyloxy-Benzenesulfonyl)-3-hydroxycarbamoyl-piperazine-1-carboxylic Acid tert-Butyl Ester] showed an IC50 (MMP-1) of 456 nM, an IC50 (MMP-9) of 24 nM and an IC50 (MMP-13) of 17 nM. The IC50 [1] was 21 nM.

Work on `CC#CCOc1ccc(S(=O)(=O)N(CC)C(C(=O)NO)C(C)C)cc1` (stereo not drawn) [Example 108, 2-[(4-but-2-ynyloxy-Benzenesulfonyl)-ethyl-amino]-N-hydroxy-3-methyl-butyramide] yielded an IC50 (MMP-1) of 92 nM, an IC50 (MMP-9) of 119 nM and an IC50 (MMP-13) of 67 nM. It also gave an IC50 [1] of 33 nM.

`C#CCN(C(C(=O)NO)C(C)C)S(=O)(=O)c1ccc(OCC#CC)cc1` (stereo not drawn) [Example 109, 2-[{[4-(2-Butynyloxy)phenyl]sulfonyl}(2-propynyl)amino]-N-hydroxy-3-methylbutanamide] showed an IC50 (MMP-1) of 210 nM, an IC50 (MMP-9) of 233 nM and an IC50 (MMP-13) of 53 nM. The IC50 [1] was 55 nM.

Work on `CC#CCOc1ccc(S(=O)(=O)N(CCC)C(C(=O)NO)C(C)C)cc1` (stereo not drawn) [Example 110, 2[(4-but-2-ynyloxy-Benzenesulfonyl)-propyl-amino]-N-hydroxy-3-methyl-butyramide] yielded an IC50 (MMP-1) of 196 nM, an IC50 (MMP-9) of 477 nM and an IC50 (MMP-13) of 153 nM. For the same molecule, the IC50 [1] was 66 nM.

Molecule `CC#CCOc1ccc(S(=O)(=O)N(CCCc2ccccc2)C(C(=O)NO)C(C)C)cc1` (stereo not drawn) [Example 111, 2-[(4-but-2-ynyloxy-Benzenesulfonyl)-(3-phenyl-propyl)-amino]-N-hydroxy-3-methyl-butyramide] has an IC50 (MMP-1) of 308 nM, an IC50 (MMP-9) of 1420 nM and an IC50 (MMP-13) of 303 nM. The IC50 [1] was 481 nM.

Work on `CC#CCOc1ccc(S(=O)(=O)N(CC2CC2)C(C(=O)NO)C(C)C)cc1` (stereo not drawn) [Example 112, 2-[(4-but-2-ynyloxy-Benzenesulfonyl)-cyclopropylmethyl-amino]-N-hydroxy-3-methyl-butyramide] yielded an IC50 (MMP-1) of 189 nM, an IC50 (MMP-9) of 397 nM and an IC50 (MMP-13) of 142 nM. It also gave an IC50 [1] of 57 nM.

With `CC#CCOc1ccc(S(=O)(=O)N(CC(C)C)C(C(=O)NO)C(C)C)cc1` (stereo not drawn) [Example 113, 2-[(4-but-2-ynyloxy-Benzenesulfonyl)-isobutyl-amino]-N-hydroxy-3-methyl-butyramide] the IC50 (MMP-1) was 299 nM, the IC50 (MMP-9) was 918 nM and the IC50 (MMP-13) was 309 nM. The IC50 [1] was 107 nM.

Molecule `CC#CCOc1ccc(S(=O)(=O)N(Cc2cccnc2)C(C(=O)NO)C(C)C)cc1` (stereo not drawn) [Example 114, 2-[(4-but-2-ynyloxy-Benzenesulfonyl)-pyridin-3-ylmethyl-amino]-N-hydroxy-3-methyl-butyramide] has an IC50 (MMP-1) of 236 nM, an IC50 (MMP-9) of 193 nM and an IC50 (MMP-13) of 94 nM. For the same molecule, the IC50 [1] was 93 nM.

Molecule `CC#CCOc1ccc(S(=O)(=O)N(C)C(C(=O)NO)C2CCCCC2)cc1` (stereo not drawn) [Example 115, 2-[(4-but-2-ynyloxy-Benzenesulfonyl)-methyl-amino]-2-cyclohexyl-N-hydroxy-acetamide] has an IC50 (MMP-1) of 94 nM, an IC50 (MMP-9) of 14 nM and an IC50 (MMP-13) of 6.6 nM. For the same molecule, the IC50 [1] was 31 nM.

`CC#CCOc1ccc(S(=O)(=O)N(Cc2cccnc2)[C@@H](C(=O)NO)C2CCCCC2)cc1` [Example 116, 2-[(4-but-2-ynyloxy-Benzenesulfonyl)-pyridin-3-ylmethyl-amino]-2-cyclohexyl-N-hydroxy-acetamide] was tested, and the IC50 (MMP-1) was 218 nM, the IC50 (MMP-9) was 336 nM and the IC50 (MMP-13) was 53 nM. The IC50 [1] was 204 nM.

Work on `CC#CCOc1ccc(S(=O)(=O)N(CCCN(CC)CC)C(C(=O)NO)C(C)C)cc1` (stereo not drawn) [Example 118, 2-{{[4-(2-Butynyloxy)phenyl]sulfonyl}[3-(diethylamino)propyl]amino}-N-hydroxy-3-methylbutanamide] yielded an IC50 (MMP-1) of 121 nM, an IC50 (MMP-9) of 86 nM and an IC50 (MMP-13) of 45 nM. The IC50 [1] was 154 nM.

`CC#CCOc1ccc(S(=O)(=O)N(CCCN2CCOCC2)C(C(=O)NO)C(C)C)cc1` (stereo not drawn) [Example 119, 2-{{[4-(2-Butynyloxy)phenyl]sulfonyl}[3-(4-morpholinyl)propyl]amino}-N-hydroxy-3-methylbutanamide] was tested, and the IC50 (MMP-1) was 129 nM, the IC50 (MMP-9) was 94 nM and the IC50 (MMP-13) was 46 nM. For the same molecule, the IC50 [1] was 124 nM.

Molecule `CC#CCOc1ccc(S(=O)(=O)N(CCCN2CCN(C)CC2)C(C(=O)NO)C(C)C)cc1` (stereo not drawn) [Example 120, 2-{{[4-(2-Butynyloxy)phenyl]sulfonyl}[3-(4-methyl-1-piperazinyl)propyl]amino}-N-hydroxy-3-methylbutanamide Hydrochloride] has an IC50 (MMP-1) of 111 nM, an IC50 (MMP-9) of 211 nM and an IC50 (MMP-13) of 161 nM. It also gave an IC50 [1] of 149 nM.

`CC#CCOc1ccc(S(=O)(=O)N(CCCCN(CC)CC)C(C(=O)NO)C(C)C)cc1` (stereo not drawn) [Example 121, 2-{{[4-(2-Butynyloxy)phenyl]sulfonyl}[4-(diethylamino)butyl]amino}-N-hydroxy-3-methylbutanamide] showed an IC50 (MMP-1) of 120 nM, an IC50 (MMP-9) of 256 nM and an IC50 (MMP-13) of 114 nM. For the same molecule, the IC50 [1] was 177 nM.

`CC#CCOc1ccc(S(=O)(=O)N(CCCCN2CCN(C)CC2)C(C(=O)NO)C(C)C)cc1` (stereo not drawn) [Example 122, 2-{{[4-(2-Butynyloxy)phenyl]sulfonyl}[4-(4-methyl-1-piperazinyl)butyl]amino}-N-hydroxy-3-methylbutanamide] gave an IC50 (MMP-1) of 86 nM, an IC50 (MMP-9) of 135 nM and an IC50 (MMP-13) of 50 nM. For the same molecule, the IC50 [1] was 128 nM.

Molecule `CC#CCOc1ccc(S(=O)(=O)N(CCN2CCOCC2)C(C(=O)NO)C(C)C)cc1` (stereo not drawn) [Example 123, 2-[[[4-(2-Butynyloxy)phenyl]sulfonyl][2-(4-morpholinyl)ethyl]amino]-N-hydroxy-3-methylbutanamide] has an IC50 (MMP-1) of 244 nM, an IC50 (MMP-9) of 628 nM and an IC50 (MMP-13) of 89 nM. It also gave an IC50 [1] of 102 nM.

With `CC#CCOc1ccc(S(=O)(=O)N(CCN2CCOCC2)CC(=O)NO)cc1` [Example 124, 2-[{[4-(but-2-ynyloxy)Phenyl]sulfonyl}(2-morpholin-4-ylethyl)amino]-N-hydroxyacetamide Hydrochloride] the IC50 (MMP-1) was 1770 nM, the IC50 (MMP-9) was 211 nM and the IC50 (MMP-13) was 54 nM. It also gave an IC50 [1] of 13 nM.

`CC#CCOc1ccc(S(=O)(=O)N(CC#CCN2CCN(C)CC2)C(C(=O)NO)C(C)C)cc1` (stereo not drawn) [Example 125, 2-{{[4-(2-Butynyloxy)phenyl]sulfonyl}[4-(4-methyl-1-piperazinyl)-2-butynyl]amino}-N-hydroxy-3-methylbutanamide] showed an IC50 (MMP-1) of 505 nM, an IC50 (MMP-9) of 846 nM and an IC50 (MMP-13) of 151 nM. The IC50 [1] was 108 nM.

For `CC#CCOc1ccc(S(=O)(=O)N(CC#CCNC)C(C(=O)NO)C(C)C)cc1` (stereo not drawn) [Example 127, 2-{{[4-(2-Butynyloxy)phenyl]sulfonyl}[4-(methylamino)-2-butynyl]amino}-N-hydroxy-3-methylbutanamide], the IC50 (MMP-1) was 187 nM, the IC50 (MMP-9) was 53 nM and the IC50 (MMP-13) was 37 nM. The IC50 [1] was 104 nM.

With `CC#CCOc1ccc(S(=O)(=O)N(C)[C@@H](C(=O)NO)C2CCC(N(CC)CC)CC2)cc1` (stereo partly drawn) [Example 128, ((2R)-{[4-(2-Butynyloxy)phenyl]sulfonyl}(methyl)amino)[(4-diethylamino)cyclohexyl]-N-hydroxyethamide] the IC50 (MMP-1) was 2370 nM, the IC50 (MMP-9) was 184 nM and the IC50 (MMP-13) was 212 nM. It also gave an IC50 [1] of 376 nM.

In the case of `CC#CCOc1ccc(S(=O)(=O)N(C)CC(=O)NO)cn1` [Example 131, 2-[(6-but-2-ynyloxy-Pyridine-3-sulfonyl)-methyl-amino]-N-hydroxy-acetamide], the IC50 (MMP-1) is reported as roughly 10000 nM, the IC50 (MMP-9) is reported as 402 nM and the IC50 (MMP-13) is reported as 428 nM. For the same molecule, the IC50 [1] was 29 nM.

For `CC#CCOc1ccc(S(=O)(=O)N(CC#CCN2CCN(C)CC2)C(C)C(=O)NO)cc1` (stereo not drawn) [Example 135], the IC50 (MMP-1) was 921 nM, the IC50 (MMP-9) was 142 nM and the IC50 (MMP-13) was 66 nM. For the same molecule, the IC50 [1] was 21 nM.

`CC#CCOc1ccc(S(=O)(=O)N(C)C(C(=O)NO)C(C)(C)SCCN2CCOCC2)cc1` (stereo not drawn) [Example 140, 2-({[4-(2-Butynyloxy)phenyl]sulfonyl)(methyl)amino]-N-hydroxy-3 Methyl-3-[(2(4-morpholinylethyl)sulfanyl]-butanamide Hydrochloride] showed an IC50 (MMP-1) of 45 nM, an IC50 (MMP-9) of 103 nM and an IC50 (MMP-13) of 9.2 nM. For the same molecule, the IC50 [1] was 86 nM.

`CC#CCOc1ccc(S(=O)(=O)N(C)C(C(=O)NO)C(C)(C)SCCn2ccnc2)cc1` (stereo not drawn) [Example 144, 2-({[4-(2-Butynyloxy)phenyl]sulfonyl)(methyl)amino]-N-hydroxy-3 Methyl-3-{[2-(1H-imidazol-1-yl)ethyl]sulfanyl}butanamide] gave an IC50 (MMP-1) of 16 nM, an IC50 (MMP-9) of 26 nM and an IC50 (MMP-13) of 5.9 nM. It also gave an IC50 [1] of 60 nM.
